Results published in publication PMC4138103 (PLoS ONE, 2014).
pIC50: −log10 of the molar value.

Columns and labels:
Sprague-Dawley rats = assay: Brain amino acid analyses; format: in vivo, Rattus norvegicus; design: key to Glutathione, trend over total doses: D: significant dose response (for results, see Table 2); T: significant trend
Experimental: The right hemisphere of cerebrum was rapidly weighed and homogenized in ice cold 7% HClO4 [35] using a glass/teflon Potter-Elvehjem homogenizer (Schwaben Prazision Nordlingen type L43). α-Amino adipic acid was used as internal standard. Samples were neutralized to pH 6.5–7.5 with ice cold KOH/HCl and centrifuged for 20 min at 20 000 g and 4°C in a Sorvall RMC-14-micro centrifuge. Pellets were frozen at −40°C for later protein determination by the BCA-assay. Supernatants were stored at −40°C, filtered with Nylon-66 micro filters (mesh 0.22 µm; Nalgene) prior to HPLC analysis.
Total amino acids in extracts were analyzed, using a reversed-phase HPLC (ChromSpher 5 C18 column; length 25 cm, inner diameter 4.6 mm; Varian) fitted with a fluorescence detector (Shimadzu, Kyoto, Japan), after derivatization with o-phthaldialdehyde (OPA; Sigma). […] Each sample was eluted for 45 min with a flow rate of 0.4 ml/min. A mixture of the amino acids of interest was run as external standards at 100 µM. L-Amino acid standards for aspartic acid, glutamic acid, serine, glutamine, glycine and alanine] were obtained from Pierce (Rockford, Ill., USA), whereas taurine, γ-amino butyric acid, glutathione and α-amino adipic acid standards were from Sigma-Aldrich. Chromatograms were analyzed using the software Lab Solutions (Shimadzu).

human TTR = molecular target: T1, human TTR (Homo sapiens, UniProt P02766); details: ref Hamers et al. 2011, cited from earlier work
T1 construct: purchased Sigma Aldrich

[1] = brain, females, total dose 10 mg/kg bw, n 1
[2] = brain, females, total dose 30 mg/kg bw
[3] = brain, females, total dose 300 mg/kg bw
[4] = brain, females, total dose 1000 mg/kg bw
[5] = brain, males, total dose 10 mg/kg bw
[6] = brain, males, total dose 30 mg/kg bw
[7] = brain, males, total dose 300 mg/kg bw
[8] = brain, males, total dose 1000 mg/kg bw

Clc1cc(Cl)c(-c2cc(Cl)c(Cl)c(Cl)c2Cl)cc1Cl [PCB 180, 2,2′,3′,4,4′,5,5′-heptachlorobiphenyl]
Amino acid concentration in cerebrum vs controls (Sprague-Dawley rats; both genders, 10, 30, 300 or 1000 mg/kg bw): did not show significant differences
Alanine (Sprague-Dawley rats; [1]): 14.25 nmol/mg protein
Aspartate (Sprague-Dawley rats; [1]): 71.05 nmol/mg protein
Glutamate (Sprague-Dawley rats; [1]): 124 nmol/mg protein
Glutamine (Sprague-Dawley rats; [1]): 85.95 nmol/mg protein
Glutathione (Sprague-Dawley rats; [1]): 16.96 nmol/mg protein
Glycine (Sprague-Dawley rats; [1]): 43.99 nmol/mg protein
Serine (Sprague-Dawley rats; [1]): 17.81 nmol/mg protein
Taurine (Sprague-Dawley rats; [1]): 113.1 nmol/mg protein
γ-Amino butyric acid (Sprague-Dawley rats; [1]): 42.71 nmol/mg protein
Alanine (Sprague-Dawley rats; [2]): 12.67 nmol/mg protein
Aspartate (Sprague-Dawley rats; [2]): 60.52 nmol/mg protein
Glutamate (Sprague-Dawley rats; [2]): 110 nmol/mg protein
Glutamine (Sprague-Dawley rats; [2]): 82.24 nmol/mg protein
Glutathione (Sprague-Dawley rats; [2]): 12.19 nmol/mg protein
Glycine (Sprague-Dawley rats; [2]): 43.93 nmol/mg protein
Serine (Sprague-Dawley rats; [2]): 17.02 nmol/mg protein
Taurine (Sprague-Dawley rats; [2]): 98.12 nmol/mg protein
γ-Amino butyric acid (Sprague-Dawley rats; [2]): 40.16 nmol/mg protein
Alanine (Sprague-Dawley rats; [3]): 13.51 nmol/mg protein
Aspartate (Sprague-Dawley rats; [3]): 61.77 nmol/mg protein
Glutamate (Sprague-Dawley rats; [3]): 111 nmol/mg protein
Glutamine (Sprague-Dawley rats; [3]): 87.85 nmol/mg protein
Glutathione (Sprague-Dawley rats; [3]): 11.70 nmol/mg protein
Glycine (Sprague-Dawley rats; [3]): 48.50 nmol/mg protein
Serine (Sprague-Dawley rats; [3]): 17.18 nmol/mg protein
Taurine (Sprague-Dawley rats; [3]): 95.21 nmol/mg protein
γ-Amino butyric acid (Sprague-Dawley rats; [3]): 41.47 nmol/mg protein
Alanine (Sprague-Dawley rats; [4]): 13.04 nmol/mg protein
Aspartate (Sprague-Dawley rats; [4]): 59.40 nmol/mg protein
Glutamate (Sprague-Dawley rats; [4]): 109 nmol/mg protein
Glutamine (Sprague-Dawley rats; [4]): 79.65 nmol/mg protein
Glutathione (Sprague-Dawley rats; [4]): 10.79 nmol/mg protein
Glycine (Sprague-Dawley rats; [4]): 43.12 nmol/mg protein
Serine (Sprague-Dawley rats; [4]): 16.71 nmol/mg protein
Taurine (Sprague-Dawley rats; [4]): 97.62 nmol/mg protein
γ-Amino butyric acid (Sprague-Dawley rats; [4]): 40.90 nmol/mg protein
Alanine (Sprague-Dawley rats; [5]): 11.68 nmol/mg protein
Aspartate (Sprague-Dawley rats; [5]): 59.00 nmol/mg protein
Glutamate (Sprague-Dawley rats; [5]): 110 nmol/mg protein
Glutamine (Sprague-Dawley rats; [5]): 81.50 nmol/mg protein
Glutathione (Sprague-Dawley rats; [5]): 12.48 nmol/mg protein
Glycine (Sprague-Dawley rats; [5]): 38.78 nmol/mg protein
Serine (Sprague-Dawley rats; [5]): 17.39 nmol/mg protein
Taurine (Sprague-Dawley rats; [5]): 93.04 nmol/mg protein
γ-Amino butyric acid (Sprague-Dawley rats; [5]): 36.29 nmol/mg protein
Alanine (Sprague-Dawley rats; [6]): 12.16 nmol/mg protein
Aspartate (Sprague-Dawley rats; [6]): 60.01 nmol/mg protein
Glutamate (Sprague-Dawley rats; [6]): 106 nmol/mg protein
Glutamine (Sprague-Dawley rats; [6]): 68.58 nmol/mg protein
Glutathione (Sprague-Dawley rats; [6]): 11.48 nmol/mg protein
Glycine (Sprague-Dawley rats; [6]): 38.07 nmol/mg protein
Serine (Sprague-Dawley rats; [6]): 16.11 nmol/mg protein
Taurine (Sprague-Dawley rats; [6]): 93.22 nmol/mg protein
γ-Amino butyric acid (Sprague-Dawley rats; [6]): 36.82 nmol/mg protein
Alanine (Sprague-Dawley rats; [7]): 13.02 nmol/mg protein
Aspartate (Sprague-Dawley rats; [7]): 58.39 nmol/mg protein
Glutamate (Sprague-Dawley rats; [7]): 111 nmol/mg protein
Glutamine (Sprague-Dawley rats; [7]): 76.57 nmol/mg protein
Glutathione (Sprague-Dawley rats; [7]): 10.37 nmol/mg protein
Glycine (Sprague-Dawley rats; [7]): 39.90 nmol/mg protein
Serine (Sprague-Dawley rats; [7]): 17.20 nmol/mg protein
Taurine (Sprague-Dawley rats; [7]): 95.86 nmol/mg protein
γ-Amino butyric acid (Sprague-Dawley rats; [7]): 36.14 nmol/mg protein
Alanine (Sprague-Dawley rats; [8]): 12.29 nmol/mg protein
Aspartate (Sprague-Dawley rats; [8]): 54.56 nmol/mg protein
Glutamate (Sprague-Dawley rats; [8]): 103 nmol/mg protein
Glutamine (Sprague-Dawley rats; [8]): 72.52 nmol/mg protein
Glutathione (Sprague-Dawley rats; [8]): 9.97 nmol/mg protein
Glycine (Sprague-Dawley rats; [8]): 40.40 nmol/mg protein
Serine (Sprague-Dawley rats; [8]): 16.45 nmol/mg protein
Taurine (Sprague-Dawley rats; [8]): 88.63 nmol/mg protein
γ-Amino butyric acid (Sprague-Dawley rats; [8]): 35.69 nmol/mg protein
Glutathione, trend over total doses (Sprague-Dawley rats; brain, males, total doses 0-1000 mg/kg bw): T
Cerebrum glutathione concentration, max. decrease (Sprague-Dawley rats; males, at 1000 mg/kg): 18%
T4 displacement, Pilot experiment (human TTR; @10000 nM): 27% T4 displacement @10000 nM
pIC50 (human TTR; TTR binding): < 4.82
